Reference: patent publication US11000033B2, “Ketone or oxime compound, and herbicide” (NISSAN CHEMICAL CORPORATION, priority 2014, dated 2021)

How the values were obtained:
Format in all cases: in vivo
Abutilon theophrasti = assay: Test Example 5: herbicidal effect by foliage application, plastic box (symbol M); conditions: 320 g/ha, 3 weeks after application
Method in brief: (§1)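 Emulsion formulation, diluted with water to the intended rate, was applied uniformly to leaves by small sprayer. Recipients were 14-day greenhouse-grown seedlings (25° C. to 30° C.). Assessment followed at 3 weeks.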

Scirpus juncoides = assay: Test Example 1: herbicidal activity, application before weed generation in submerged conditions (symbol B); conditions: application herbicide amount 320 g/ha
Method in brief: (§2)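 Application before weed emergence: an aqueous dilution of the emulsion formulation was poured onto the surface of 4 cm-deep floodwater on the day of sowing. Effect was judged after 3 weeks (greenhouse, 25–30 °C).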

Veronica persica = assay: Test Example 5: herbicidal effect by foliage application, plastic box (symbol R); conditions: 320 g/ha, 3 weeks after application
Method in brief: as §1

Alopecurus myosuroides = assay: Test Example 5: herbicidal effect by foliage application, plastic box (symbol J); conditions: 320 g/ha, 3 weeks after application
Method in brief: as §1

Apera spica-venti = assay: Test Example 5: herbicidal effect by foliage application, plastic box (symbol L); conditions: 320 g/ha, 3 weeks after application
Method in brief: as §1

Galium spurium = assay: Test Example 5: herbicidal effect by foliage application, plastic box (symbol Q); conditions: 320 g/ha, 3 weeks after application
Method in brief: as §1

[1] = test system: Echinochloa oryzacola Vasing.; assay: Test Example 1: herbicidal activity, application before weed generation in submerged conditions (symbol A); conditions: application herbicide amount 320 g/ha
Method in brief: as §2

Monochoria vaginalis = assay: Test Example 1: herbicidal activity, application before weed generation in submerged conditions (symbol C); conditions: application herbicide amount 320 g/ha
Text: Herbicidal Activity Test by Application Before Weed Generation in Submerged Conditions
After alluvial soil was placed into 1/10000 are of Wagner pot, water was poured and mixed to form a submerged condition having a water depth of 4 cm. Seeds of Echinochloa oryzacola Vasing., Scirpus juncoides, and Monochoria vaginalis were sowed in a mixed manner in the above pot and thereafter 2.5 leaf stage rice plant seedlings were transplanted thereto. On the day of sowing seeds, the emulsion agent of the compound of the present invention prepared in accordance with Formulation Example 2 was diluted with water so as to be a predetermined herbicide amount and the diluted emulsion agent was applied to the surface of the water. The pot was placed in a greenhouse of 25° C. to 30° C. to grow plant. 3 weeks later from the herbicide application, the effect to each plant was investigated in accordance with the following criteria.
5 Herbicidal ratio of 90% or more (almost completely withered)
4 Herbicidal ratio of 70% or higher and lower than 90%
3 Herbicidal ratio of 40% or higher and lower than 70%
2 Herbicidal ratio of 20% or higher and lower than 40%
1 Herbicidal ratio of 5% or higher and lower than 20%
0 Herbicidal ratio of 5% or lower (almost no effect)

Setaria viridis = assay: Test Example 5: herbicidal effect by foliage application, plastic box (symbol G); conditions: 320 g/ha, 3 weeks after application
Method in brief: as §1

Lolium multiflorum Lam. = assay: Test Example 5: herbicidal effect by foliage application, plastic box (symbol K); conditions: 320 g/ha, 3 weeks after application
Method in brief: as §1

Avena fatua = assay: Test Example 5: herbicidal effect by foliage application, plastic box (symbol I); conditions: 320 g/ha, 3 weeks after application
Method in brief: as §1

Chenopodium album = assay: Test Example 5: herbicidal effect by foliage application, plastic box (symbol O); conditions: 320 g/ha, 3 weeks after application
Method in brief: as §1

transplanted rice plant = assay: Test Example 1: effect on crop, application before weed generation in submerged conditions (symbol a); conditions: application herbicide amount 320 g/ha
Method in brief: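 Rice at 2.5 leaf stage transplanted into submerged soil (4 cm depth) sown with three weed species; herbicide applied before weed emergence.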

Leptochloa chinensis = assay: Test Example 3: herbicidal effect by foliage application, Wagner pot (symbol D); conditions: application herbicide amount 320 g/ha
Method in brief: (§3)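 In a shallow-flooded alluvial soil system held at 25–30 °C, plants including rice grew for 14 days and were then sprayed over the foliage with emulsion diluted to a fixed herbicide amount. Visual rating followed at 3 weeks.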

[2] = test system: Echinochloa crus-galli var. crus-galli; assay: Test Example 5: herbicidal effect by foliage application, plastic box (symbol H); conditions: 320 g/ha, 3 weeks after application
Method in brief: as §1

Cyperus difformis = assay: Test Example 3: herbicidal effect by foliage application, Wagner pot (symbol E); conditions: application herbicide amount 320 g/ha
Method in brief: as §3

[3] = test system: Echinochloa crus-galli var. crus-galli; assay: Test Example 3: herbicidal effect by foliage application, Wagner pot (symbol H); conditions: application herbicide amount 320 g/ha
Method in brief: as §3

[4] = test system: directly sowed rice plant; assay: Test Example 3: effect on crop by foliage application, Wagner pot (symbol b); conditions: application herbicide amount 320 g/ha
Method in brief: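 Steps: fill a 1/10000-are Wagner pot with alluvial soil; add water and mix to submerge at 0.1–0.5 cm depth; sow rice plus Echinochloa crus-galli var. crus-galli, Leptochloa chinensis and Cyperus difformis; grow in a 25–30 °C greenhouse.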

Stellaria media = assay: Test Example 5: herbicidal effect by foliage application, plastic box (symbol P); conditions: 320 g/ha, 3 weeks after application
Method in brief: as §1

wheat = assay: Test Example 5: effect on crop by foliage application, plastic box (symbol e); conditions: 320 g/ha, 3 weeks after application
Method in brief: (§4)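 Foliage-application test plants come from spot sowing in sterilized diluvial soil under a soil layer of about 1.5 cm, grown at 25° C. to 30° C. in a greenhouse.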

rapeseed = assay: Test Example 5: effect on crop by foliage application, plastic box (symbol g); conditions: 320 g/ha, 3 weeks after application
Method in brief: as §4

soybean = assay: Test Example 5: effect on crop by foliage application, plastic box (symbol d); conditions: 320 g/ha, 3 weeks after application
Method in brief: as §4

Amaranthus retroflexus = assay: Test Example 5: herbicidal effect by foliage application, plastic box (symbol N); conditions: 320 g/ha, 3 weeks after application
Method in brief: as §1

Digitaria ciliaris = assay: Test Example 5: herbicidal effect by foliage application, plastic box (symbol F); conditions: 320 g/ha, 3 weeks after application
Method in brief: as §1

corn = assay: Test Example 5: effect on crop by foliage application, plastic box (symbol c); conditions: 320 g/ha, 3 weeks after application
Method in brief: as §4

beet = assay: Test Example 5: effect on crop by foliage application, plastic box (symbol f); conditions: 320 g/ha, 3 weeks after application
Method in brief: as §4

rice plant = assay: Test Example 5: effect on crop by foliage application, plastic box (symbol b); conditions: 320 g/ha, 3 weeks after application
Method in brief: as §4

| SMILES | M: Abutilon theophrasti, herbicidal effect (criteria of Test Example 1) (Abutilon theophrasti) | R: Veronica persica, herbicidal effect (criteria of Test Example 1) (Veronica persica) | J: Alopecurus myosuroides, herbicidal effect (criteria of Test Example 1) (Alopecurus myosuroides) | L: Apera spica-venti, herbicidal effect (criteria of Test Example 1) (Apera spica-venti) | Q: Galium spurium, herbicidal effect (criteria of Test Example 1) (Galium spurium) | G: Setaria viridis, herbicidal effect (criteria of Test Example 1) (Setaria viridis) | K: Lolium multiflorum Lam., herbicidal effect (criteria of Test Example 1) (Lolium multiflorum Lam.) | I: Avena fatua, herbicidal effect (criteria of Test Example 1) (Avena fatua) | O: Chenopodium album, herbicidal effect (criteria of Test Example 1) (Chenopodium album) | H: Echinochloa crus-galli var. crus-galli, herbicidal effect (criteria of Test Example 1) [2] | P: Stellaria media, herbicidal effect (criteria of Test Example 1) (Stellaria media) | e: wheat, effect on crop (criteria of Test Example 1) (wheat) | g: rapeseed, effect on crop (criteria of Test Example 1) (rapeseed) | d: soybean, effect on crop (criteria of Test Example 1) (soybean) | N: Amaranthus retroflexus, herbicidal effect (criteria of Test Example 1) (Amaranthus retroflexus) | F: Digitaria ciliaris, herbicidal effect (criteria of Test Example 1) (Digitaria ciliaris) | c: corn, effect on crop (criteria of Test Example 1) (corn) | f: beet, effect on crop (criteria of Test Example 1) (beet) | b: directly sowed rice plant, effect on crop (criteria of Test Example 1) (rice plant) | also measured |
| --- | --- | --- | --- | --- | --- | --- | --- | --- | --- | --- | --- | --- | --- | --- | --- | --- | --- | --- | --- | --- |
| CC(=O)CC1CC(O)=C(c2c(C)cc(-n3cncn3)cc2C)C1=O (centres unmarked) [7-026] | 0 (Herbicidal ratio of 5% or lower (almost no effect)) | 0 (Herbicidal ratio of 5% or lower (almost no effect)) | 1 (Herbicidal ratio of 5% or higher and lower than 20%) | 0 (Herbicidal ratio of 5% or lower (almost no effect)) | 0 (Herbicidal ratio of 5% or lower (almost no effect)) | 0 (Herbicidal ratio of 5% or lower (almost no effect)) | 1 (Herbicidal ratio of 5% or higher and lower than 20%) | 0 (Herbicidal ratio of 5% or lower (almost no effect)) | 0 (Herbicidal ratio of 5% or lower (almost no effect)) | 1 (Herbicidal ratio of 5% or higher and lower than 20%) | 0 (Herbicidal ratio of 5% or lower (almost no effect)) | 0 (Herbicidal ratio of 5% or lower (almost no effect)) | 0 (Herbicidal ratio of 5% or lower (almost no effect)) | 0 (Herbicidal ratio of 5% or lower (almost no effect)) | 0 (Herbicidal ratio of 5% or lower (almost no effect)) | 0 (Herbicidal ratio of 5% or lower (almost no effect)) | 0 (Herbicidal ratio of 5% or lower (almost no effect)) | 0 (Herbicidal ratio of 5% or lower (almost no effect)) | 0 (Herbicidal ratio of 5% or lower (almost no effect)) | Herbicidal effect grade, B: Scirpus juncoides (Scirpus juncoides): 0 (Herbicidal ratio of 5% or lower (almost no effect)); Herbicidal effect grade, A: Echinochloa oryzacola Vasing. [1]: 3 (Herbicidal ratio of 40% or higher and lower than 70%); Herbicidal effect grade, C: Monochoria vaginalis (Monochoria vaginalis): 0 (Herbicidal ratio of 5% or lower (almost no effect)); Effect grade on crop, a: transplanted rice plant (transplanted rice plant): 0 (Herbicidal ratio of 5% or lower (almost no effect)); D (Leptochloa chinensis) herbicidal effect grade (Leptochloa chinensis; Table 24): 3 (Herbicidal ratio of 40% or higher and lower than 70%); E herbicidal effect grade (Cyperus difformis; Table 24): 0 (Herbicidal ratio of 5% or lower (almost no effect)); H (Echinochloa crus-galli var. crus-galli) herbicidal effect grade ([3]; Table 24): 0 (Herbicidal ratio of 5% or lower (almost no effect)); b (directly sowed rice plant) effect on crop grade ([4]; Table 24): 0 (Herbicidal ratio of 5% or lower (almost no effect)) |
| CON=C(C)CC1CC(OC)=C(c2c(C)cc(C=Cc3ccccc3)cc2C)C1=O (centres unmarked) [6-068] | 0 (Herbicidal ratio of 5% or lower (almost no effect)) | 0 (Herbicidal ratio of 5% or lower (almost no effect)) | 0 (Herbicidal ratio of 5% or lower (almost no effect)) | 0 (Herbicidal ratio of 5% or lower (almost no effect)) | 0 (Herbicidal ratio of 5% or lower (almost no effect)) | 3 (Herbicidal ratio of 40% or higher and lower than 70%) | 0 (Herbicidal ratio of 5% or lower (almost no effect)) | 0 (Herbicidal ratio of 5% or lower (almost no effect)) | 0 (Herbicidal ratio of 5% or lower (almost no effect)) | 3 (Herbicidal ratio of 40% or higher and lower than 70%) | 2 (Herbicidal ratio of 20% or higher and lower than 40%) | 0 (Herbicidal ratio of 5% or lower (almost no effect)) | 2 (Herbicidal ratio of 20% or higher and lower than 40%) | 0 (Herbicidal ratio of 5% or lower (almost no effect)) | 0 (Herbicidal ratio of 5% or lower (almost no effect)) | 0 (Herbicidal ratio of 5% or lower (almost no effect)) | 4 (Herbicidal ratio of 70% or higher and lower than 90%) | 0 (Herbicidal ratio of 5% or lower (almost no effect)) | 1 (Herbicidal ratio of 5% or higher and lower than 20%) | herbicidal effect on D (Leptochloa chinensis), grade 0-5 (Leptochloa chinensis): 2 (Herbicidal ratio of 20% or higher and lower than 40%); herbicidal effect on E, grade 0-5 (Cyperus difformis): 0 (Herbicidal ratio of 5% or lower (almost no effect)); herbicidal effect on H (Echinochloa crus-galli var. crus-galli), grade 0-5 [3]: 0 (Herbicidal ratio of 5% or lower (almost no effect)); effect on crop b (directly sowed rice plant), grade 0-5 [4]: 0 (Herbicidal ratio of 5% or lower (almost no effect)) |
